{"source": "patent US8334253B2", "about": "“Cosmetic and dermatological formulations of MNTF peptides” (Dermacare Neuroscience Institute, priority 2008, dated 2012)", "key": {"[1]": {"test_system": "UVA-bleaching of beta-carotene", "assay": "UVA bleaching of beta-carotene on forearm skin, Color Index by CHROMAMETER", "type": "in vivo, human", "conditions": "0.1% gel on human forearm, UVA", "procedure": "In-vivo method for assessing the protective effects of cosmetic products. Bleaching of carotenoids have been used to evaluate the auto-oxidation activity of natural products. The relative efficacy of scavengers of lipid peroxyl free radicals after application to the skin was assessed by measuring the UVA-bleaching of beta-carotene as a function of the energy exposure.\nA CHROMAMETER colorimeter (TM, Minolta Model CR-300) was used to measure changes in color by expressing the color of measured surfaces numerically in L*a*b* color space which is a system recommended by the CIE (Commission Internationale de I'Eclairage) for skin color assessment. In this color space, L* is the luminance and gives the relative brightness from total black (L*=0) to total white (L*=100). The a* value represents the balance between the reds (positive values) and the greens (negative values). The b* value represents the balance between the yellows (positive values) and the blues (negative values). The b* value most closely describes the intensity of the orange color of the β-carotene stain and is in direct correlation with the Color Index, I. The CHROMAMETER provides a means by which oxidative damage caused by free radicals and, conversely, the prevention of oxidation by free radical scavengers, can be measured. Free radical oxidation induced by UVA radiation elicits a bleaching and reduction of color of beta-carotene stain. The bleaching and prevention of bleaching by a test material can be measured by the CHROMAMETER. Bleaching is reported as the change in b* versus UVA Irradiation Energy. It can also be expressed in terms of a Color Index, I, defined as: I=[(bn*−bi*)/(b0*−bi*)]×100 where, bn* is the value of b* measured after n J/cm^2 of irradiation of the area treated with the cosmetic formulation and painted with the β-carotene; b0* is the value of b* after application of the beta-carotene but before irradiation; and bi* is the value of b* before application of the beta-carotene. This index compensates for any effects of skin color on bn* and b0*. Bleaching will cause bn* value and I value (as a percentage) to decrease. Prevention of bleaching will result in higher I values or less reduction in I value when exposed to radiation.\nThe designated forearm of impaneled subjects was cleansed with a 70% isopropyl alcohol prep pad (Medium, Dynarex) and allowed to dry. Test sites were selected on the volar surface of the designated forearm of each subject, with each test site defined by the open, central area of a self-adhesive ring (Professional ProFoot™ Products, P.P.R. Co, Inc.). The adhesive side of the rings were placed directly on the skin. The rings were used to retain the test material and beta-carotene solution as well as to function as a guide for taking measurements with the CHROMAMETER.\nGel formulations (0.1% Pal-hexapeptide) and (0.1% hexapeptide) were applied to the forearm according to a randomized schedule. Additional sites were treated with a beta-carotene control, a positive control (internal control) and an untreated control. Treatment of the test sites were randomized for each subject.\nPrior to application of the test materials or beta-carotene, the initial b* parameter was measured using the CHROMAMETER and recorded for all duplicate test sites of the forearm (Baseline). Approximately 2 mg/cm^2 of each material was applied to the designated test site and spread manually with a finger cot to ensure even distribution. Sites designated as untreated, with or without beta-carotene, remained untreated at this time. The test materials and internal control were allowed to incubate with the skin surface for a period of fifteen (15) minutes. After this incubation period, b* measurements were recorded for all sites (Product Baseline).\nA solution of beta-carotene in a mixture of capric and caprylic triglycerides was applied to all treated sites. The b* parameter is again measured and recorded (beta-carotene Baseline). […]"}, "[2]": {"test_system": "hyaluronic acid levels in adult human dermal fibroblast (aHDF) conditioned media", "assay": "Hyaluronic acid in fibroblast-conditioned medium (HA-ELISA)", "type": "cell-based", "conditions": "96 h", "description": "Hyaluronic acid (hyaluronan, HA), a naturally occurring carbohydrate polymer is a key component of connective, epithelial and neural tissues. HA participates in hydrodynamics, movement and proliferation of cells. This test was designed to determine whether a sample of palmitylated and non-palmitylated MNTF hexapeptide has an effect on hyaluronic acid levels in the adult human dermal fibroblast (aHDF) conditioned media.\nAdult HDF (facial, passage 2, Cell Applications, San Diego, Calif. cat.#106-05A lot#1392) were plated in high glucose phosphate-free DMEM supplemented with 5% cosmic serum from Hyclone, Utah) at 6,000 cells per well and test materials were added the following day. Test materials were: Pal-Hexapeptide (palmitylated SEQ ID NO:2 as a lyophilized powder labeled APC 341055, lot V08150A1, received from DermaCare Neuroscience Institute), type I sterile water (negative control) and basic fibroblast growth factor (bFGF, positive control). Pal-Hexapeptide was dissolved in water at 20 mg/ml. Final concentrations tested were: 400, 200, 100, 50 and 25 ug/ml for DNP and 5 ng/ml for bFGF (plate 507). After 96 h, cell culture conditioned media were collected and 100 ul aliquotes were used for the HA assay. HA assay was performed using Hyaluronan Enzyme-Linked Immunosorbent Assay Kit (HA-ELISA, cat. #K-1200) from Echelon (Salt Lake City, Utah). The HA output was measured by following the generation of a chromophoric reaction product in 96 well plate, with the use of a BioRad microplate reader at 410 nm and the effect of the test materials was determined using the formula: Absorbance 410 (sample)/Absorbance 410 (Zero HA)×100.\nAdult HDF (facial, passage 2, Cell Applications, San Diego, Calif. cat.#106-05A lot#1392) were plated in high glucose phosphate-free DMEM supplemented with 5% cosmic serum from Hyclone, Utah) at 6,000 cells per well and test materials were added the following day. Test materials were: hexapeptide (SEQ ID NO:2 (non-palmitylated), lyophilized powder lot #D294, received from DermaCare Neuroscience Institute), type I sterile water (negative control) and basic fibroblast growth factor (bFGF, positive control). Pal-Hexapeptide was dissolved in water at 20 mg/ml. Final concentrations tested were: 2000, 1000, 500 and 250 ug/ml for hexapeptide and 5 ng/ml for bFGF (plate 507). After 96 h, cell culture conditioned media were collected and 100 ul aliquotes were used for the HA assay. HA assay was performed using Hyaluronan Enzyme-Linked Immunosorbent Assay Kit (HA-ELISA, cat. #K-1200) from Echelon (Salt Lake City, Utah). The HA output was measured by following the generation of a chromophoric reaction product in 96 well plate, with the use of a BioRad microplate reader at 410 nm and the effect of the test materials was determined using the formula: Absorbance 410 (sample)/Absorbance 410 (Zero HA)×100."}}, "note": "Peptide text beside a SMILES is read from it. * marks the point of attachment. Palmitoyl = CCCCCCCCCCCCCCCC(=O)*"}
{"compound": "CCCCCCCCCCCCCCCC(=O)N[C@@H](Cc1ccccc1)C(=O)N[C@@H](CO)C(=O)N[C@@H](CCCNC(=N)N)C(=O)N[C@@H](Cc1ccc(O)cc1)C(=O)N[C@@H](C)C(=O)N[C@@H](CCCNC(=N)N)C(=O)O", "note": "[Pal 6 mer, Pal-FSRYAR] (Palmitoyl-FSRYAR-OH; C-terminus assumed)", "values": [{"measurement": "preventing the bleaching of beta-carotene compared to the beta-carotene control", "setting": "[1]", "value": "effective as a free radical scavenger"}, {"measurement": "stimulation of hyaluronic acid in the fibroblast-conditioned medium", "setting": "[2]; 50 ug/ml", "value": "about 15%"}, {"measurement": "stimulation of hyaluronic acid in the fibroblast-conditioned medium", "setting": "[2]; 100 ug/ml", "value": "about 15%"}, {"measurement": "stimulation of hyaluronic acid in the fibroblast-conditioned medium", "setting": "[2]; 200 ug/ml", "value": 40, "unit": "%"}, {"measurement": "stimulation of hyaluronic acid in the fibroblast-conditioned medium", "setting": "[2]; 400 ug/ml", "value": 40, "unit": "%"}]}
